{"source": "patent US7786142B2", "about": "“Heterocyclic compounds as pSTAT3/IL-6 inhibitors” (Orchid Research Laboratories, Ltd., priority 2005, dated 2010)", "origin": "cited, not measured here", "system": "Jak2/Stat3 signaling", "conditions": "literature (Burdelya et al., 2002; Meydan et al., 1996; Constantin et al., 1998); cited from earlier work"}
{"smiles": "N#C/C(=C/c1ccc(O)c(O)c1)C(=O)NCc1ccccc1", "note": "[AG490]", "values": [{"measurement": "concentration needed to show Jak/Stat3 signaling inhibition and anti-tumor activity", "value": "50 to 100", "unit": "µM"}]}
